17 molecules from article PMC9706563, “Development of Macrocyclic PRMT5–Adaptor Protein Interaction Inhibitors” (Journal of Medicinal Chemistry, 2022) can be followed below.

Numbered stars: 1 amine (or outer) side, 2 acyl side, 3 side chain; on linkers, the order of the positions; unused ones are H or OH. Bridge positions count the residues as written; N and C are the ends. Square brackets hold non-standard residues; d marks the D form. Peptide text beside a SMILES is read from it. * marks the point of attachment. FITC = O=C1OC2(c3ccc(O)cc3Oc3cc(O)ccc32)c2ccc(NC(=S)*)cc21; dNva(5-ylidene) = O=C([C@@H](CCC=[*:3])N[*:1])[*:2]; Phe(3-CF3) = N[C@@H](Cc1cccc(C(F)(F)F)c1)C(=O)O; Phe(4-COOH) = N[C@@H](Cc1ccc(C(=O)O)cc1)C(=O)O; 2Nal = N[C@@H](Cc1ccc2ccccc2c1)C(=O)O; Phe(2-F) = N[C@@H](Cc1ccccc1F)C(=O)O; hPhe = N[C@@H](CCc1ccccc1)C(=O)O; dAllylGly = C=CC[C@@H](N)C(=O)O; Nle = CCCC[C@H](N)C(=O)O; Dab = NCC[C@H](N)C(=O)O; Sar = CNCC(=O)O Bounds are passed on as bounds.

For the first data set, the target named is T1, PRMT5-MEP50 (Homo sapiens, UniProt O14744).
T1 construct: The compounds were tested by means of FP with the full-length PRMT5-MEP50 complex; made in house
T1 sequence (O14744 whole entry): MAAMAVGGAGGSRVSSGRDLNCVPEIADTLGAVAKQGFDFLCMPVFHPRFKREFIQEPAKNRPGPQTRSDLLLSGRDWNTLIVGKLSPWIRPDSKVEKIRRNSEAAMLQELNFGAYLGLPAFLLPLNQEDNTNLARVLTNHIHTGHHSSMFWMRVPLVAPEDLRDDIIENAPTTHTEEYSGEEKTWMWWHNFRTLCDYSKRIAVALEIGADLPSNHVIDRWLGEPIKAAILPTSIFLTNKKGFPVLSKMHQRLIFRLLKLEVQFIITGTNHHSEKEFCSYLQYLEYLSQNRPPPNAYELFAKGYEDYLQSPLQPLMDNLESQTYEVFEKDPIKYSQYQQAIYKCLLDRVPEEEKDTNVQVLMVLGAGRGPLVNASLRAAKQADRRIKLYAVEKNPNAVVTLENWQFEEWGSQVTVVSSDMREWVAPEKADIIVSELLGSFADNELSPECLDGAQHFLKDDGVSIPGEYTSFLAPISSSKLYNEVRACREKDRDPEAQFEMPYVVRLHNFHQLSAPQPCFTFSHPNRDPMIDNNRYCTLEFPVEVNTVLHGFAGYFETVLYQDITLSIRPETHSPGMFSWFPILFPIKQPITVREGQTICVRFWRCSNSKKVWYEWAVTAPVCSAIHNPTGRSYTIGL
T1 sequence (Q9BQA1 whole entry partner): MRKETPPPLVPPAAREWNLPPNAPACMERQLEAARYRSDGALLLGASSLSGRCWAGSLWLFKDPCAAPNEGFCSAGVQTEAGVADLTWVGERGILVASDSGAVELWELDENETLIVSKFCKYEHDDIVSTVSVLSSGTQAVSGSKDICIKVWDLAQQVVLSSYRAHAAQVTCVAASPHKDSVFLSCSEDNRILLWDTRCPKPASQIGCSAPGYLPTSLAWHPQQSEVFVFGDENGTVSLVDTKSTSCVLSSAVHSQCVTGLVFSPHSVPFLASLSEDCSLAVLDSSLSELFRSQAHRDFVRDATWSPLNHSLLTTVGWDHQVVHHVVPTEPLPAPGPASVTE
The data set is described as follows: Direct binding fluorescence polarization (FP) assay of FITC-labeled peptides. The settings on record: supplementary CSV, read-out: PRMT5-MEP50 Kd.
Procedure: The assay was performed in a buffer of 50 mM 4-(2-hydroxyethyl)-1-piperazineethanesulfonic acid (HEPES), 250 mM NaCl, 1 mM tris(2-carboxyethyl)phosphine (TCEP), and 0.01% (v/v) Tween 20, pH 8.0, in black, 384-well plates with a total volume of 10 μL per well. […] The plates were incubated at room temperature for 1 to 2 h and analyzed on a plate reader using 485 nm excitation and 535 nm emission wavelength. The assay was performed in triplicate.
The Kd is the constant that tells how readily two partners part at equilibrium. In the case of `CC(=O)N[C@H](C(=O)N1CCC[C@H]1C(=O)NCC(=O)N[C@@H](CCC(N)=O)C(=O)N[C@@H](Cc1ccccc1)C(=O)N[C@@H](CC(=O)O)C(=O)N[C@@H](CC(=O)O)C(=O)N[C@@H](C)C(=O)N[C@@H](Cc1c[nH]c2ccccc12)C(=O)N[C@@H](CCCCNC(=S)Nc1ccc2c(c1)C(=O)OC21c2ccc(O)cc2Oc2cc(O)ccc21)C(N)=O)C(C)C` [Compound S33] (Ac-VPGQFDDAWK(FITC)-NH2), the Kd was > 1 µM.
The same measure, in the same setting: next, `CC(=O)N[C@H](C(=O)N1CCC[C@H]1C(=O)NCC(=O)N[C@@H](CCC(N)=O)C(=O)N[C@@H](Cc1ccc(O)cc1)C(=O)N[C@@H](CC(=O)O)C(=O)N[C@@H](CC(=O)O)C(=O)N[C@@H](C)C(=O)N[C@@H](CC(=O)O)C(=O)N[C@@H](CCCCNC(=S)Nc1ccc2c(c1)C(=O)OC21c2ccc(O)cc2Oc2cc(O)ccc21)C(N)=O)C(C)C` [Compound S18] (Ac-VPGQYDDADK(FITC)-NH2): > 1 µM; `CC(=O)N[C@H](C(=O)N1CCC[C@H]1C(=O)NCC(=O)N[C@@H](CCN)C(=O)N[C@@H](Cc1ccccc1)C(=O)N[C@@H](CC(=O)O)C(=O)N[C@@H](CC(=O)O)C(=O)N[C@@H](C)C(=O)N[C@@H](CC(=O)O)C(=O)N[C@@H](CCCCNC(=S)Nc1ccc2c(c1)C(=O)OC21c2ccc(O)cc2Oc2cc(O)ccc21)C(N)=O)C(C)C` [Compound S9] (Ac-VPG[Dab]FDDADK(FITC)-NH2): > 1 µM.
As to `CC(=O)N[C@H](C(=O)N1CCC[C@H]1C(=O)N[C@@H]1CCC=CC[C@H](C(=O)N[C@@H](CC(=O)O)C(=O)N[C@@H](C)C(=O)N[C@@H](CC(=O)O)C(=O)N[C@@H](CCCCNC(=S)Nc2ccc3c(c2)C(=O)OC32c3ccc(O)cc3Oc3cc(O)ccc32)C(N)=O)NC(=O)[C@H](Cc2ccccc2)NC(=O)[C@H](CCC(N)=O)NC1=O)C(C)C` [Compound 24] (Ac-VP[dNva(5-ylidene)]QF[dAllylGly]DADK(FITC)-NH2; staple 3-6), the Kd is > 2 µM.
Same read-out and setting: for `CC(=O)N[C@@H](CCC(=O)O)C(=O)N1CCC[C@H]1C(=O)NCC(=O)N[C@@H](CCC(N)=O)C(=O)N[C@@H](Cc1ccccc1)C(=O)N[C@@H](CC(=O)O)C(=O)N[C@@H](CC(=O)O)C(=O)N[C@@H](C)C(=O)N[C@@H](CC(=O)O)C(=O)N[C@@H](CCCCNC(=S)Nc1ccc2c(c1)C(=O)OC21c2ccc(O)cc2Oc2cc(O)ccc21)C(N)=O` [Compound S7] (Ac-EPGQFDDADK(FITC)-NH2) the value was 0.695 ± 0.078 µM; for `CCCC[C@H](NC(=O)[C@H](CC(=O)O)NC(=O)[C@H](CC(=O)O)NC(=O)[C@H](Cc1ccccc1)NC(=O)[C@H](CCC(N)=O)NC(=O)CNC(=O)[C@@H]1CCCN1C(=O)[C@@H](NC(C)=O)C(C)C)C(=O)N[C@@H](CC(=O)O)C(=O)N[C@@H](CCCCNC(=S)Nc1ccc2c(c1)C(=O)OC21c2ccc(O)cc2Oc2cc(O)ccc21)C(N)=O` [Compound S29] (Ac-VPGQFDD[Nle]DK(FITC)-NH2), > 1 µM; for `CC(C)[C@H](NC(=O)[C@H](CCCNC(=N)N)NC(=O)[C@H](CO)NC(=O)COCCOCCNC(=S)Nc1ccc2c(c1)C(=O)OC21c2ccc(O)cc2Oc2cc(O)ccc21)C(=O)N[C@H](C(=O)N1CCC[C@H]1C(=O)N[C@@H]1CC=CC[C@H](C(=O)N[C@@H](CC(=O)O)C(=O)N[C@@H](C)C(=O)N[C@@H](CC(=O)O)C(N)=O)NC(=O)[C@H](Cc2ccccc2)NC(=O)[C@H](CCC(N)=O)NC1=O)C(C)C` (single isomer, unassigned) [15 (isomer 1)], > 2 µM.
Still for that read-out and setting: for `CC(=O)N[C@H](C(=O)N1CCC[C@H]1C(=O)N(C)CC(=O)N[C@@H](CCC(N)=O)C(=O)N[C@@H](Cc1ccccc1)C(=O)N[C@@H](CC(=O)O)C(=O)N[C@@H](CC(=O)O)C(=O)N[C@@H](C)C(=O)N[C@@H](CC(=O)O)C(=O)N[C@@H](CCCCNC(=S)Nc1ccc2c(c1)C(=O)OC21c2ccc(O)cc2Oc2cc(O)ccc21)C(N)=O)C(C)C` [Compound 48, Ac-VP-(N-Me)G-QFDDADK(Fitc)-NH2] (Ac-VP[Sar]QFDDADK(FITC)-NH2) the value was > 2 µM; for `CC(=O)N[C@H](C(=O)N1CCC[C@H]1C(=O)NCC(=O)N[C@@H](CCC(N)=O)C(=O)N[C@@H](Cc1cccc(C(F)(F)F)c1)C(=O)N[C@@H](CC(=O)O)C(=O)N[C@@H](CC(=O)O)C(=O)N[C@@H](C)C(=O)N[C@@H](CC(=O)O)C(=O)N[C@@H](CCCCNC(=S)Nc1ccc2c(c1)C(=O)OC21c2ccc(O)cc2Oc2cc(O)ccc21)C(N)=O)C(C)C` [Compound S16] (Ac-VPGQ[Phe(3-CF3)]DDADK(FITC)-NH2), > 1 µM.
Still for that read-out and setting: for `CC(=O)N[C@H](C(=O)N1CCC[C@H]1C(=O)NCC(=O)N[C@@H](CCC(N)=O)C(=O)N[C@@H](Cc1ccccc1F)C(=O)N[C@@H](CC(=O)O)C(=O)N[C@@H](CC(=O)O)C(=O)N[C@@H](C)C(=O)N[C@@H](CC(=O)O)C(=O)N[C@@H](CCCCNC(=S)Nc1ccc2c(c1)C(=O)OC21c2ccc(O)cc2Oc2cc(O)ccc21)C(N)=O)C(C)C` [Compound S12] (Ac-VPGQ[Phe(2-F)]DDADK(FITC)-NH2) the value was > 1 µM; for `CC(=O)N[C@@H](CC(=O)O)C(=O)N1CCC[C@H]1C(=O)NCC(=O)N[C@@H](CCC(N)=O)C(=O)N[C@@H](Cc1ccccc1)C(=O)N[C@@H](CC(=O)O)C(=O)N[C@@H](CC(=O)O)C(=O)N[C@@H](C)C(=O)N[C@@H](CC(=O)O)C(=O)N[C@@H](CCCCNC(=S)Nc1ccc2c(c1)C(=O)OC21c2ccc(O)cc2Oc2cc(O)ccc21)C(N)=O` [Compound S6] (Ac-DPGQFDDADK(FITC)-NH2), > 1 µM.
As to `CC(C)[C@H](NC(=O)[C@H](CCCNC(=N)N)NC(=O)[C@H](CO)NC(=O)COCCOCCNC(=S)Nc1ccc2c(c1)C(=O)OC21c2ccc(O)cc2Oc2cc(O)ccc21)C(=O)N[C@H](C(=O)N1CCC[C@H]1C(=O)NC1CCNC(=O)C[C@@H](C(=O)N[C@@H](CC(=O)O)C(=O)N[C@@H](C)C(=O)N[C@@H](CC(=O)O)C(N)=O)NC(=O)[C@H](Cc2ccccc2)NC(=O)[C@H](CCC(N)=O)NC1=O)C(C)C` (stereo in doubt) [Compound 7], the Kd was > 2 µM.
The same measure, in the same setting: next, `CC(=O)N[C@H](C(=O)N1CCC[C@H]1C(=O)N[C@@H]1CCCCCC[C@H](C(=O)N[C@@H](CC(=O)O)C(=O)N[C@@H](C)C(=O)N[C@@H](CC(=O)O)C(=O)N[C@@H](CCCCNC(=S)Nc2ccc3c(c2)C(=O)OC32c3ccc(O)cc3Oc3cc(O)ccc32)C(N)=O)NC(=O)[C@H](Cc2ccccc2)NC(=O)[C@H](CCC(N)=O)NC1=O)C(C)C` [Compound 27]: > 2 µM; `CC(=O)N[C@H](C(=O)N1CCC[C@H]1C(=O)NCC(=O)N[C@@H](CCC(N)=O)C(=O)N[C@@H](Cc1ccc(C(=O)O)cc1)C(=O)N[C@@H](CC(=O)O)C(=O)N[C@@H](CC(=O)O)C(=O)N[C@@H](C)C(=O)N[C@@H](CC(=O)O)C(=O)N[C@@H](CCCCNC(=S)Nc1ccc2c(c1)C(=O)OC21c2ccc(O)cc2Oc2cc(O)ccc21)C(N)=O)C(C)C` [Compound S19] (Ac-VPGQ[Phe(4-COOH)]DDADK(FITC)-NH2): > 1 µM.
On the same count and under the same terms, for `CC(=O)N[C@H](C(=O)N1CCC[C@H]1C(=O)NCC(=O)N[C@@H](CCC(N)=O)C(=O)N[C@@H](Cc1ccc2ccccc2c1)C(=O)N[C@@H](CC(=O)O)C(=O)N[C@@H](CC(=O)O)C(=O)N[C@@H](C)C(=O)N[C@@H](CC(=O)O)C(=O)N[C@@H](CCCCNC(=S)Nc1ccc2c(c1)C(=O)OC21c2ccc(O)cc2Oc2cc(O)ccc21)C(N)=O)C(C)C` [Compound S24] (Ac-VPGQ[2Nal]DDADK(FITC)-NH2) the value was > 1 µM; for `CC(=O)N[C@@H](CCc1ccccc1)C(=O)N1CCC[C@H]1C(=O)NCC(=O)N[C@@H](CCC(N)=O)C(=O)N[C@@H](Cc1ccccc1)C(=O)N[C@@H](CC(=O)O)C(=O)N[C@@H](CC(=O)O)C(=O)N[C@@H](C)C(=O)N[C@@H](CC(=O)O)C(=O)N[C@@H](CCCCNC(=S)Nc1ccc2c(c1)C(=O)OC21c2ccc(O)cc2Oc2cc(O)ccc21)C(N)=O` [Compound S4] (Ac-[hPhe]PGQFDDADK(FITC)-NH2), > 1 µM.

Tested on in the next data set: not listed separately
The data set can be described thus: Stability assay in cell lysate. The data set is classed as in vitro ADME. Particulars: U2OS cell lysate, 37 °C, 600 μM peptide. The procedure: To the whole cell lysate prepared from U2OS cells with the freeze–thaw method was added the appropriate peptide, resulting in a mixture of 0.5 mg/mL protein and 600 μM peptide in PBS, and incubated at 37 °C. The samples were taken at 0, 15, 30 min, 1, 2, 4 h, 1, 3, and 7-days time points and mixed with an equal volume of ice-cold ethylparaben solution in MeOH (0.1 mg/mL), used as the internal standard. The samples were kept on ice for 15 min and centrifuged at 16,873 × g at 4 °C for 5 min. The obtained supernatant was then analyzed by HPLC, the peptide and the internal standard peaks at 210 nm were integrated, and the ratio of the peptide peak surface area to the internal standard was calculated. The experiment was conducted in duplicate.
Ac-VPGQFDDAD-NH2 [Compound 31] showed a half-life of 4.4 h.

The same data set, now with this note: cells or culture medium, supplementary CSV; read-out: Half-llife in Lysate (converted).
Ac-VPGQFDDAD-NH2 [Compound 31]: the half-life was 4.32 h.
